For 37 molecules, IC50 and inhibition results are on record in patent publication EP1806348A2, “Pyrido (2,3-D)Pyrimidines as inhibitors of cellular proliferation” (Warner-Lambert Company LLC, priority 1997, dated 1998).

Holding throughout (type): biochemical
The target of one assay is cdc2/cyclinB (Homo sapiens, UniProt P06493). Nature of the assay: Cyclin-dependent kinase assay (cdc2/cyclinB). The following applies: Table 1; read-out: cdk1/B IC50. The procedure:
(§1) All components except the ATP were added to the wells, and the plate was placed on a plate mixer for 2 minutes. […] The reaction was terminated by addition of 0.1 mL of 20% TCA. The plate was kept at 4°C for at least 1 hour to allow the substrate to precipitate. The wells were then washed five times with 0.2 mL of 10% TCA and ^32P incorporation determined with a beta plate counter (Wallac Inc., Gaithersburg, MD).

In another assay the target is cdk2/cyclinE (Homo sapiens, UniProt P24941). Briefly: Cyclin-dependent kinase assay (cdk2/cyclinE). The following applies: Table 1; read-out: cdk2/E IC50. On the procedure: as §1
The target of the next assay is cdk2/cyclinA (Homo sapiens, UniProt P24941). Nature of the assay: Cyclin-dependent kinase assay (cdk2/cyclinA). Conditions: Table 1. The procedure: as §1
A further assay concerns the target cdk4/D (Homo sapiens, UniProt P11802). Nature of the assay: Cyclin-dependent kinase 4 (cdk4) enzyme assay, 32P incorporation into retinoblastoma. Conditions: for inhibition at 40 µM: read-out: cdk4/D % inhibition at 40 µM. The procedure: A typical assay, for instance, measures inhibitory activity against the cyclin D dependent kinase 4 enzyme (cdk4/D). […] The cdk 4 assay was carried out as follows.
All components except the ATP were added to the wells, and the plate was placed on a plate mixer for 2 minutes. […] The reaction was terminated by addition of 0.1 mL of 20% trichloroacetic acid (TCA). The plate was kept at 4°C for at least 1 hour to allow the substrate to precipitate. The wells were then washed five times with 0.2 mL of 10% TCA and ^32P incorporation was determined with a beta plate counter (Wallac Inc., Gaithersburg, MD).

The mark [1] stands for this setting: Table 1, 25 µM ATP, retinoblastoma substrate.

Where two headings read alike, the source gives them in different places.

cdk4/D, sequence (P11802 whole entry): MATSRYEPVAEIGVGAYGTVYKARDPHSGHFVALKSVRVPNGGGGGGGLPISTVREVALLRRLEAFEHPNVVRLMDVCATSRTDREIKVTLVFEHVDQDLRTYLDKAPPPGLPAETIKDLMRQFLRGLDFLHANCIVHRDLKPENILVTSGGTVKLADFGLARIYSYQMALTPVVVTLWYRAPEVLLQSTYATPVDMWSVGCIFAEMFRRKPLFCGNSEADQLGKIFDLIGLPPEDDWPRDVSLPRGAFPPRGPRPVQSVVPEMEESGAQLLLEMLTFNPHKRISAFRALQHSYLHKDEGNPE
cdk4/D, sequence (P24385 whole entry, further chain): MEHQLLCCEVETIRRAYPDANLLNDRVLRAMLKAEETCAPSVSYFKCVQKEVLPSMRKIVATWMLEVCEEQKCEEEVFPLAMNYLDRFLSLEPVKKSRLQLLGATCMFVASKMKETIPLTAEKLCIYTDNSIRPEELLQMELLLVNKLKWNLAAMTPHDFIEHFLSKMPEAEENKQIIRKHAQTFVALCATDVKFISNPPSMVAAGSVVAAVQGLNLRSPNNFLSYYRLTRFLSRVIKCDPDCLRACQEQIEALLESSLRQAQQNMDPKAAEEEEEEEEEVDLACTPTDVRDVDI
cdc2/cyclinB, sequence (P06493 whole entry): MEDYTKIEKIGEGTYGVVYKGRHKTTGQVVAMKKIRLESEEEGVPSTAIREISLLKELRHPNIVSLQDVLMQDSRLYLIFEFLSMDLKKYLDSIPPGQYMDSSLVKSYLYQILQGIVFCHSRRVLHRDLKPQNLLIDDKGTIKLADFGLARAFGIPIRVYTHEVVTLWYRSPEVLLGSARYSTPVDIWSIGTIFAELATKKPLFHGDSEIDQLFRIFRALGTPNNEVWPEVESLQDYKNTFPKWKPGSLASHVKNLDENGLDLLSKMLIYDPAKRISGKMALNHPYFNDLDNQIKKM
cdc2/cyclinB, sequence (P14635 whole entry, further chain): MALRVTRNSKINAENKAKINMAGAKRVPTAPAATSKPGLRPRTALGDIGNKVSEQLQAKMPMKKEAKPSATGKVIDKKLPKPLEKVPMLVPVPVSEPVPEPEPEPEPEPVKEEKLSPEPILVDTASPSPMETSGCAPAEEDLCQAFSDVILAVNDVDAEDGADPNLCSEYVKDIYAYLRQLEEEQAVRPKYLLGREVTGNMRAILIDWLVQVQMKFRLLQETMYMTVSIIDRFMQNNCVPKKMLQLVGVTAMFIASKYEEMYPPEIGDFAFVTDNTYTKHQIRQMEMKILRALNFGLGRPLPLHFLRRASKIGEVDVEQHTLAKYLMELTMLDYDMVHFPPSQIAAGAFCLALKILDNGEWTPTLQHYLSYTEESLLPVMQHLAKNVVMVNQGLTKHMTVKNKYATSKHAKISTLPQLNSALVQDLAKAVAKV

For `O=c1ccc2cnc(Nc3ccccc3)nc2[nH]1` [Example 32, 2-Phenylamino-8H-pyrido[2,3-d]pyrimidin-7-one], the IC50 on cdc2/cyclinB came out at 32600 nM; at cdk2/cyclinE, 12800 nM; on cdk2/cyclinA, 4660 nM. On to `COCn1c(=O)ccc2cnc(Nc3ccccc3)nc21` [Example 37, 8-Methoxymethyl-2-phenylamino-8H-pyrido[2,3-d]pyrimidin-7-one], for which, on cdk4/D (setting [1]), the IC50 came out at 4200 nM. Still for that read-out and setting: as for `O=c1ccc2cnc(Nc3ccccc3)nc2n1CC1CO1` (centres unmarked) [Example 39, 8-Oxiranylmethyl-2-phenylamino-8H-pyrido[2,3-d]pyrimidin-7-one], the figure is 5000 nM.

With `CC(C)n1c(=O)ccc2cnc(Nc3ccccc3)nc21` [Example 43, 8-Isopropyl-2-phenylamino-8H-pyrido[2,3-d]pyrimidin-7-one], the IC50 against cdk4/D (setting [1]) was 150 nM; at cdc2/cyclinB it was 440 nM; at cdk2/cyclinE it was 126 nM; at cdk2/cyclinA, 31 nM. For the molecule `CCn1c(=O)ccc2cnc(NCc3ccccc3)nc21` [Example 44, 2-Benzylamino-8-ethyl-8H-pyrido[2,3-d]pyrimidin-7-one], the IC50 on cdc2/cyclinB was 16700 nM; against cdk2/cyclinA it was 6460 nM. On to `CCNc1ncc2ccc(=O)n(CC)c2n1` [Example 45, 8-Ethyl-2-ethylamino-8H-pyrido[2,3-d]pyrimidin-7-one], for which the IC50 against cdk4/D (setting [1]) worked out at 12000 nM; at cdc2/cyclinB, 9230 nM; on cdk2/cyclinE it was 3930 nM; on cdk2/cyclinA it was 2460 nM. As for `CCn1c(=O)ccc2cnc(NC(C)(C)C)nc21` [Example 46, 2-tert-Butylamino-8-ethyl-8H-pyrido[2,3-d]pyrimidin-7-one], the IC50 on cdk4/D (setting [1]) worked out at 5300 nM; at cdc2/cyclinB, 3410 nM.

For the molecule `CCn1c(=O)ccc2cnc(NC(C)C)nc21` [Example 47, 8-Ethyl-2-isopropylamino-8H-pyrido[2,3-d]pyrimidin-7-one], the IC50 came out at 3700 nM on cdk4/D (setting [1]) and 3550 nM at cdc2/cyclinB. As to `CCn1c(=O)ccc2cnc(NC3CCCCC3)nc21` [Example 48, 2-Cyclohexylamino-8-ethyl-8H-pyrido[2,3-d]pyrimidin-7-one], the IC50 was 3300 nM at cdk4/D (setting [1]), 2610 nM at cdc2/cyclinB, 592 nM on cdk2/cyclinE and 230 nM at cdk2/cyclinA. For `CCn1c(=O)ccc2cnc(Nc3ccc(-c4ccccc4)cc3)nc21` [Example 49, 2-(Biphenyl-4-ylamino)-8-ethyl-8H-pyrido[2,3-d]pyrimidin-7-one], the IC50 against cdk4/D (setting [1]) amounted to 2000 nM. With `CCn1c(=O)ccc2cnc(Nc3ccc(OC)cc3)nc21` [Example 51, 8-Ethyl-2-(4-methoxyphenylamino)-8H-pyrido[2,3-d]pyrimidin-7-one], the IC50 on cdk4/D (setting [1]) worked out at 600 nM; on cdc2/cyclinB it was 665 nM; at cdk2/cyclinE, 422 nM; at cdk2/cyclinA, 134 nM. `CCn1c(=O)ccc2cnc(Nc3ccc(N4CCN(C)CC4)cc3)nc21` [Example 53, 8-Ethyl-2-[4-(4-methylpiperazin-1-yl)-phenylamino]-8H-pyrido[2,3-d]pyrimidin-7-one]: the IC50 at cdk4/D (setting [1]) worked out at 85 nM; on cdc2/cyclinB, 1880 nM; on cdk2/cyclinE it was 1190 nM; at cdk2/cyclinA it was 339 nM. As to `CCn1c(=O)ccc2cnc(Nc3cccc(OC(F)(F)C(F)F)c3)nc21` [Example 54, 8-Ethyl-2-[3-(1,1,2,2-tetrafluoroethoxy)-phenylamino]-8H-pyrido[2,3-d]pyrimidin-7-one], the IC50 on cdk4/D (setting [1]) worked out at 7830 nM; on cdc2/cyclinB, 91 nM; on cdk2/cyclinE, 1200 nM; against cdk2/cyclinA it was 238 nM. Molecule `CCn1c(=O)ccc2cnc(Nc3ccc(O)cc3)nc21` [Example 55, 8-Ethyl-2-(4-hydroxyphenylamino)-8H-pyrido[2,3-d]pyrimidin-7-one] registered an IC50 on cdk4/D (setting [1]) of 600 nM. As for `CCn1c(=O)ccc2cnc(Nc3ccc(OCc4ccccc4)cc3)nc21` [Example 56, 2-Benzyloxyphenylamino-8-ethyl-8H-pyrido[2,3-d]pyrimidin-7-one], the IC50 against cdk4/D (setting [1]) was determined as 25000 nM.

In turn, `CCn1c(=O)ccc2cnc(Nc3ccc(OCCOC)cc3)nc21` [Example 57, 8-Ethyl-2-[4-(2-methoxyethoxy)phenylamino]-8H-pyrido[2,3-d]pyrimidin-7-one] yielded an IC50 on cdk4/D (setting [1]) of 800 nM. Take `COc1ccc(Cn2c(=O)ccc3cnc(Nc4ccccc4)nc32)cc1` [Example 58, 8-(4-Methoxybenzyl)-2-phenylamino-8H-pyrido[2,3-d]pyrimidin-7-one]: the IC50 against cdk4/D (setting [1]) was found to be 10000 nM. For `Cn1c(=O)ccc2cnc(Nc3ccccc3)nc21` [Example 61, 8-Methyl-2-phenylamino-8H-pyrido[2,3-d]pyrimidin-7-one], the IC50 was 6900 nM against cdk4/D (setting [1]), 1760 nM at cdc2/cyclinB, 860 nM at cdk2/cyclinE and 490 nM at cdk2/cyclinA.

For `Cn1c(=O)ccc2cnc(NCc3ccccc3)nc21` [Example 63, 2-Benzylamino-8-methyl-8H-pyrido[2,3-d]pyrimidin-7-one], the IC50 stood at 21600 nM at cdc2/cyclinB and 38100 nM at cdk2/cyclinA.

Turning to `CCCCNc1ncc2ccc(=O)n(C)c2n1` [Example 64, 2-Butylamino-8-methyl-8H-pyrido[2,3-d]pyrimidin-7-one], the IC50 against cdk4/D (setting [1]) is 40000 nM.

On cdk4/D (setting [1]), `Cn1c(=O)ccc2cnc(NCCc3ccccn3)nc21` [Example 66, 8-Methyl-2-(2-pyridin-2-yl-ethylamino)-8H-pyrido[2,3-d]pyrimidin-7-one] returned an IC50 of 45000 nM. On cdk4/D (setting [1]), `CC(C)Nc1ncc2ccc(=O)n(C)c2n1` [Example 67, 2-Isopropylamino-8-methyl-8H-pyrido[2,3-d]pyrimidin-7-one] showed an IC50 of 25000 nM. Turning to `CCNc1nc(Nc2ccccc2)ncc1CCC(=O)OCC` [Example 68, 3-(4-Ethylamino-2-phenylamino-pyrimidin-5-yl)propionic acid ethyl ester], on cdk4/D (Table 2, Formula II compounds), the IC50 stood at 90000 nM. The inhibition at 40 µM on cdk4/D (at 40 µM, Table 2) is 37%. `CCN1C(=O)CCc2cnc(Nc3ccccc3)nc21` [Example 69, 8-Ethyl-2-phenylamino-5,8-dihydro-6H-pyrido[2,3-d]pyrimidin-7-one] returned an IC50 at cdk4/D (setting [1]) of 4300 nM. For `CCNc1nc(Nc2ccccc2)ncc1C=CC#N` [Example 72, 3-(4-Ethylamino-2-phenylamino-pyrimidin-5-yl)acrylonitrile], the inhibition at 40 µM at cdk4/D turned out to be 18%.

Take `CCNc1nc(Nc2ccccc2)ncc1C(C)=CC(=O)OCC` [Example 73, 3-(4-Ethylamino-2-phenylamino-pyrimidin-5-yl)-but-2-enoic acid ethyl ester]: the inhibition at 40 µM on cdk4/D (at 40 µM, Table 2) amounted to 58%. Take `CCC(CC)n1c(=O)ccc2cnc(Nc3ccccc3)nc21` [Example 74, 8-(1-Ethylpropyl)-2-phenylamino-8H-pyrido[2,3-d]pyrimidin-7-one]: on cdk4/D (setting [1]), the IC50 stood at 141 nM.

Take `CCC(CC)n1c(=O)ccc2cnc(Nc3ccc(N4CCN(C)CC4)cc3)nc21` [Example 77, 8-(1-Ethylpropyl)-2-[4-(4-methylpiperazin-1-yl)-phenylamino]-8H-pyrido[2,3-d]pyrimidin-7-one]: the IC50 at cdk4/D (setting [1]) worked out at 14 nM; at cdc2/cyclinB it was 141 nM; on cdk2/cyclinE it was 68 nM; against cdk2/cyclinA it was 28 nM.

On cdk4/D (setting [1]), `CCn1c(=O)ccc2cnc(Nc3ccc(N4CCOCC4)cc3)nc21` [Example 79, 8-Ethyl-2-(4-morpholin-4-yl-phenylamino)-8H-pyrido[2,3-d]pyrimidin-7-one] showed an IC50 of 300 nM. As for `CCn1c(=O)c(C)cc2cnc(Nc3ccccc3)nc21` [Example 83, 8-Ethyl-6-methyl-2-phenylamino-8H-pyrido[2,3-d]pyrimidin-7-one], on cdk4/D (setting [1]), the IC50 stood at 1800 nM.

`CCC(C)n1c(=O)ccc2cnc(Nc3ccccc3)nc21` (centres unmarked) [Example 85, 8-sec-Butyl-2-phenylamino-8H-pyrido[2,3-d]pyrimidin-7-one]: the IC50 at cdk4/D (setting [1]) stood at 200 nM. Take `COCCn1c(=O)ccc2cnc(Nc3ccccc3)nc21` [Example 86, 8-(2-Methoxyethyl)-2-phenylamino-8H-pyrido[2,3-d]pyrimidin-7-one]: the IC50 on cdk4/D (setting [1]) was found to be 2400 nM. Turning to `O=c1ccc2cnc(Nc3ccccc3)nc2n1CCCOc1ccccc1` [Example 87, 8-(3-Phenoxypropyl)-2-phenylamino-8H-pyrido[2,3-d]pyrimidin-7-one], on cdc2/cyclinB, the IC50 stood at 1080 nM.

At cdk4/D (setting [1]), `CCn1c(=O)ccc2cnc(Nc3cccc(F)c3)nc21` [Example 89, 8-Ethyl-2-(3-fluorophenylamino)-8H-pyrido[2,3-d]pyrimidin-7-one] displayed an IC50 of 1400 nM.

`CCn1c(=O)ccc2cnc(Nc3ccc(OC)c(F)c3)nc21` [Example 90, 8-Ethyl-2-(3-fluoro-4-methoxyphenylamino)-8H-pyrido[2,3-d]pyrimidin-7-one] registered an IC50 against cdk4/D (setting [1]) of 1000 nM. `CCn1c(=O)ccc2cnc(Nc3cccc(F)c3OC)nc21` [Example 91, 8-Ethyl-2-(3-fluoro-2-methoxyphenylamino)-8H-pyrido[2,3-d]pyrimidin-7-one] yielded an IC50 against cdk4/D (setting [1]) of 9000 nM.

Take `CCNc1ncc2ccc(=O)n(-c3ccccc3)c2n1` [Example 100, 2-Ethylamino-8-phenyl-8H-pyrido[2,3-d]pyrimidin-7-one]: the IC50 on cdk4/D (setting [1]) is 19000 nM.
